Reference: the kinase profiling compilation of Christmann-Franck et al. (2016)

Legend:
Test in all cases: KINOMEscan competition binding
Details in all cases: compound 10.0 µM
ADCK4 (human) = ADCK4 (human) (UniProt Q96D53)
ALK (human) = ALK (human) (UniProt Q9UM73)
ANKK1 (human) = ANKK1 (human) (UniProt Q8NFD2)
CAMK2D (human) = CAMK2D (human) (UniProt Q13557)
CDC42BPG (human) = CDC42BPG (human) (UniProt Q6DT37)
CDK7 (human) = CDK7 (human) (UniProt P50613)
CDK8 (human) = CDK8 (human) (UniProt P49336)
CDK8 (human), sequence (P49336 whole entry, looked up): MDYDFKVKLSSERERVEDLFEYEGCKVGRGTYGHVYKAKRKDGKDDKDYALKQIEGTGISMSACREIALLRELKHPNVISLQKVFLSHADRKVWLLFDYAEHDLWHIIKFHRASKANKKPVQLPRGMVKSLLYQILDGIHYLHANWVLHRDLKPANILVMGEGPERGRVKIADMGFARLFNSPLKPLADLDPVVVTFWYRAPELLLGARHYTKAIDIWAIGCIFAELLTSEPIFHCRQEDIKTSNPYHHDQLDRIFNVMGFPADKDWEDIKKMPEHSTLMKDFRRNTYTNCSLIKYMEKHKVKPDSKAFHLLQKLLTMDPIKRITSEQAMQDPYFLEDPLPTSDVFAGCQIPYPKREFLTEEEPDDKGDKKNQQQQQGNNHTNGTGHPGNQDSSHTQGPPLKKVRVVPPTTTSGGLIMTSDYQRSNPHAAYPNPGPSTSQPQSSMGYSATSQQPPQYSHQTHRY

CSNK1G1 (human) = CSNK1G1 (human) (UniProt Q9HCP0)
DCLK2 (human) = DCLK2 (human) (UniProt Q8N568)
DCLK2 (human), sequence (Q8N568 whole entry, looked up): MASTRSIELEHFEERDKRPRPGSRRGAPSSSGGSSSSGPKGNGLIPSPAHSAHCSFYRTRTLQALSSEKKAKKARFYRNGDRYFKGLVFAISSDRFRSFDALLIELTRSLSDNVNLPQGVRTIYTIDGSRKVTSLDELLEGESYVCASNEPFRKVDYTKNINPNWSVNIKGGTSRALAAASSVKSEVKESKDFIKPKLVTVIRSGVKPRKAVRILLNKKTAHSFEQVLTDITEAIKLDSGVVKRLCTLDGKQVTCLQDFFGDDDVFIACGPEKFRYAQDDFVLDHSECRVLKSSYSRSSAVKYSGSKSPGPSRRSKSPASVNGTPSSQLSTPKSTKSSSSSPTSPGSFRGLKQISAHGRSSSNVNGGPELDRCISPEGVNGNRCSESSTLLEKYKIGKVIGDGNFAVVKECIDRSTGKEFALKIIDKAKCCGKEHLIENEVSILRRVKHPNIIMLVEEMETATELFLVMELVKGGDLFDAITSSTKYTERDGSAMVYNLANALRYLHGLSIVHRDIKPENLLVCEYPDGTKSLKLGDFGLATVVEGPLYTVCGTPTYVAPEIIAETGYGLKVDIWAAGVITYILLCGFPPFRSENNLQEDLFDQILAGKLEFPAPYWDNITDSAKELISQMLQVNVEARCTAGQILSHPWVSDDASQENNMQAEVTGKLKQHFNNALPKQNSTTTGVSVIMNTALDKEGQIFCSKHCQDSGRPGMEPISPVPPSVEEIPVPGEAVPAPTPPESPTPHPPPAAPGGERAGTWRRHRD

DYRK1B (human) = DYRK1B (human) (UniProt Q9Y463)
EPHA1 (human) = EPHA1 (human) (UniProt P21709)
EPHA2 (human) = EPHA2 (human) (UniProt P29317)
FER (human) = FER (human) (UniProt P16591)
GSK3B (human) = GSK3B (human) (UniProt P49841)
HCK (human) = HCK (human) (UniProt P08631)
INSRR (human) = INSRR (human) (UniProt P14616)
LTK (human) = LTK (human) (UniProt P29376)
MAP2K4 (human) = MAP2K4 (human) (UniProt P45985)
MAP3K13 (human) = MAP3K13 (human) (UniProt O43283)
MAP3K13 (human), sequence (O43283 whole entry, looked up): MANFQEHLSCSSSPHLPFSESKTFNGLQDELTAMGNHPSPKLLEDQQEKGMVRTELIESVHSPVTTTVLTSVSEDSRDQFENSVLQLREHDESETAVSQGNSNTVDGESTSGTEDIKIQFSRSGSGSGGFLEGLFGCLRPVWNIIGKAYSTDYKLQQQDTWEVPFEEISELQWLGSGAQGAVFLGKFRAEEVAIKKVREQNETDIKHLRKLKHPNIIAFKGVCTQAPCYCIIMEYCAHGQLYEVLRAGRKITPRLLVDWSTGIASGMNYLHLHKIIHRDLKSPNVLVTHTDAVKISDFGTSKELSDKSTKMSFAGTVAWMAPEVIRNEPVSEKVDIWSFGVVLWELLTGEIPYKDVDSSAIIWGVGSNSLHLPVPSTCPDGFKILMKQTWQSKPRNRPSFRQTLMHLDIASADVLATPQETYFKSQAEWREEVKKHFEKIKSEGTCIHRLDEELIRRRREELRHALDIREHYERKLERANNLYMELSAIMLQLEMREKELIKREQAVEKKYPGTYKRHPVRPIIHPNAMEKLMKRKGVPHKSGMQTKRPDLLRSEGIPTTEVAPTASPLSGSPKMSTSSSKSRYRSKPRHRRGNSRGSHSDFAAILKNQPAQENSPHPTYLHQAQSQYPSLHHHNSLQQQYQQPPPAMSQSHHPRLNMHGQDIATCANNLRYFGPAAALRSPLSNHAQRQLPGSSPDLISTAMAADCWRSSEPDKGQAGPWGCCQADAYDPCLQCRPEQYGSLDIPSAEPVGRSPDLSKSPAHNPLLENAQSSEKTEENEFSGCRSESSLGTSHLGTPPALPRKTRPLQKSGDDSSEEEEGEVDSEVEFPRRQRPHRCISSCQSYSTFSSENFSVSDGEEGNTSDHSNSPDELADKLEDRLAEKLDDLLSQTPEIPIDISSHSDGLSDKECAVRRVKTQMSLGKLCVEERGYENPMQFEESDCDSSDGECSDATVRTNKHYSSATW

MAP4K3 (human) = MAP4K3 (human) (UniProt Q8IVH8)
MAPK15 (human) = MAPK15 (human) (UniProt Q8TD08)
MELK (human) = MELK (human) (UniProt Q14680)
MKNK1 (human) = MKNK1 (human) (UniProt Q9BUB5)
MKNK2 (human) = MKNK2 (human) (UniProt Q9HBH9)
MKNK2 (human), sequence (Q9HBH9 whole entry, looked up): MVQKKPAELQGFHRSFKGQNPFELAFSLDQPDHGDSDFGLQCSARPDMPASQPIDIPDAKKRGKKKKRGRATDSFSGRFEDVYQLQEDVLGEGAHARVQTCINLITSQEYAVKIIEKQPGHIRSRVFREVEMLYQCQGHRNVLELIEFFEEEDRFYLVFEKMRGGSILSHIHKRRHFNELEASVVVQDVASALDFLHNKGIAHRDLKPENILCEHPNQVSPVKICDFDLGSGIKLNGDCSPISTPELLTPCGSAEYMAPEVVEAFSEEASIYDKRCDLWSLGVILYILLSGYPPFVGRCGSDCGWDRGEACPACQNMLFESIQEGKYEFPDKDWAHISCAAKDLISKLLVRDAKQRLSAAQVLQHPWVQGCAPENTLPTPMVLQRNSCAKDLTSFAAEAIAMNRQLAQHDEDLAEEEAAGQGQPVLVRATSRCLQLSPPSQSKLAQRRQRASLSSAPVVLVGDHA

MUSK (human) = MUSK (human) (UniProt O15146)
PAK1 (human) = PAK1 (human) (UniProt Q13153)
PAK2 (human) = PAK2 (human) (UniProt Q13177)
PHKG1 (human) = PHKG1 (human) (UniProt Q16816)
PLK1 (human) = PLK1 (human) (UniProt P53350)
PLK2 (human) = PLK2 (human) (UniProt Q9NYY3)
PRKCI (human) = PRKCI (human) (UniProt P41743)
PTK2B (human) = PTK2B (human) (UniProt Q14289)
[1] = system: RET (human), P07949 [V804L]
RET (human), P07949 [V804L], sequence (P07949 whole entry V804L, looked up): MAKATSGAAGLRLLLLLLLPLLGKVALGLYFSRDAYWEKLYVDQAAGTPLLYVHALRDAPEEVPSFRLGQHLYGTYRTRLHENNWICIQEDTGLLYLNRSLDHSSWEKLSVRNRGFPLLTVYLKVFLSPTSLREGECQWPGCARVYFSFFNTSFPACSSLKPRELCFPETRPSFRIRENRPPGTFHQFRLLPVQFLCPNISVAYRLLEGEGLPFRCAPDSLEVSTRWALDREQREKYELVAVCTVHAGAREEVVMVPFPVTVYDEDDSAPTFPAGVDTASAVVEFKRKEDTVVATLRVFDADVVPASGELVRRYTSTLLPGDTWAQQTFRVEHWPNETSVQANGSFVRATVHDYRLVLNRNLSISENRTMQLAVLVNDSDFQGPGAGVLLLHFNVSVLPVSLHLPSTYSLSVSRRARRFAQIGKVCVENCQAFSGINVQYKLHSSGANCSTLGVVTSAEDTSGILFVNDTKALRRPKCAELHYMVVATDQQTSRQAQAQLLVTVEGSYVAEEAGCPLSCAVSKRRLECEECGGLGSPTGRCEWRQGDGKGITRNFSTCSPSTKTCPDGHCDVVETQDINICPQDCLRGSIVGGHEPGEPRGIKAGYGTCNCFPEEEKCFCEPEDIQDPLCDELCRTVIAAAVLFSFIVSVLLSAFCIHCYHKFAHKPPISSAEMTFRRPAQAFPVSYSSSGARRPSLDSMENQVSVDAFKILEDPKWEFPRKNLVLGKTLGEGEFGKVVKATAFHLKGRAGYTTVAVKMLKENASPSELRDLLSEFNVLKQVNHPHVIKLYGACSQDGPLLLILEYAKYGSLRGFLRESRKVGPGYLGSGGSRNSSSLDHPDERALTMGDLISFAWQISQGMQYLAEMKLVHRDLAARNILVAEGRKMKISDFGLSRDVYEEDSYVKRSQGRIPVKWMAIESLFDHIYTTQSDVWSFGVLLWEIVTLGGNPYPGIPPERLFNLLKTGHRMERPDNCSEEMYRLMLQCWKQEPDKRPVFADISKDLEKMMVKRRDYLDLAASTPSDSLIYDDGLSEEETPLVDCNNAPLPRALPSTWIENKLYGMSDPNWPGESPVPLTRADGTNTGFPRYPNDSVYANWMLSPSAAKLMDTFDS

RIOK1 (human) = RIOK1 (human) (UniProt Q9BRS2)
RIOK1 (human), sequence (Q9BRS2 whole entry, looked up): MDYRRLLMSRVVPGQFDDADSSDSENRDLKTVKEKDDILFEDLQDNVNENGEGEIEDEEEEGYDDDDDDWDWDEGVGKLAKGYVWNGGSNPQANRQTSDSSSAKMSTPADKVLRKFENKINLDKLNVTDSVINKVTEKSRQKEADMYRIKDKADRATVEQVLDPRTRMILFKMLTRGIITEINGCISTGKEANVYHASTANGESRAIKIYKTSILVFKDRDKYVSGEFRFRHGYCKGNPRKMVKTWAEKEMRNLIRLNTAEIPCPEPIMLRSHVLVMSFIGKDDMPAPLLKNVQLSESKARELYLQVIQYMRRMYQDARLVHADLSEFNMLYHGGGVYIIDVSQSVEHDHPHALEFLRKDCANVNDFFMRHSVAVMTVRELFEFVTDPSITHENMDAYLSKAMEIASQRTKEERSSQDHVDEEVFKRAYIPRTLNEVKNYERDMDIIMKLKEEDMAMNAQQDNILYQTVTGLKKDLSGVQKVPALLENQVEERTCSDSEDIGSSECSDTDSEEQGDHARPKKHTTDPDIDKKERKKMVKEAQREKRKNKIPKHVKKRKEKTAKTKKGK

RPS6KA2 KD2 (human) = RPS6KA2 KD2 (human) (UniProt Q15349)
SGK110 (human) = SGK110 (human) (UniProt P0C264)
SRPK2 (human) = SRPK2 (human) (UniProt P78362)
SRPK2 (human), sequence (P78362 whole entry, looked up): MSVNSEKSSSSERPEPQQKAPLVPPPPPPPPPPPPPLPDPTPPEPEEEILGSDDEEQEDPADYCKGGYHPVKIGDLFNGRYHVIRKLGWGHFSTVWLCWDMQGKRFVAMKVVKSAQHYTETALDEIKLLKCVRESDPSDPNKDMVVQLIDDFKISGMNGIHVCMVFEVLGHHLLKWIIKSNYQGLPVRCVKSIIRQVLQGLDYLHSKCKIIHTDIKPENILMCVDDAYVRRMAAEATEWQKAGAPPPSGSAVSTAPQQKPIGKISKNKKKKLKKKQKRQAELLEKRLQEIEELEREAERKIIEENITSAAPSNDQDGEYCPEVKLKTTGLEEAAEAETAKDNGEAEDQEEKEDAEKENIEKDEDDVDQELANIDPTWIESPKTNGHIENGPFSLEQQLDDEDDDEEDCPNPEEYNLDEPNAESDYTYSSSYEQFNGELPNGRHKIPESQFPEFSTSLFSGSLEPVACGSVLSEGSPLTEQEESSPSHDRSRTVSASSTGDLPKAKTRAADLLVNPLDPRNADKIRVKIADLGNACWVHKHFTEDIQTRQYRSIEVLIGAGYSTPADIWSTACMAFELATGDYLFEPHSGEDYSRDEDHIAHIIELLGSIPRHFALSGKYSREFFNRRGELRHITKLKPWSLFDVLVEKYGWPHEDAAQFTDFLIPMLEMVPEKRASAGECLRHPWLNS

STK32A (human) = STK32A (human) (UniProt Q8WU08)
YSK4 (human) = YSK4 (human) (UniProt Q56UN5)
ZAP70 (human) = ZAP70 (human) (UniProt P43403)

SMILES	kinase still bound, per cent of control (ADCK4 (human)) [%]	kinase still bound, per cent of control (ALK (human)) [%]	kinase still bound, per cent of control (ANKK1 (human)) [%]	kinase still bound, per cent of control (CAMK2D (human)) [%]	kinase still bound, per cent of control (CDC42BPG (human)) [%]	kinase still bound, per cent of control (CDK7 (human)) [%]	kinase still bound, per cent of control (CDK8 (human)) [%]	kinase still bound, per cent of control (CSNK1G1 (human)) [%]	kinase still bound, per cent of control (DCLK2 (human)) [%]	kinase still bound, per cent of control (DYRK1B (human)) [%]	kinase still bound, per cent of control (EPHA1 (human)) [%]	kinase still bound, per cent of control (EPHA2 (human)) [%]	kinase still bound, per cent of control (FER (human)) [%]	kinase still bound, per cent of control (GSK3B (human)) [%]	kinase still bound, per cent of control (HCK (human)) [%]	kinase still bound, per cent of control (INSRR (human)) [%]	kinase still bound, per cent of control (LTK (human)) [%]	kinase still bound, per cent of control (MAP2K4 (human)) [%]	kinase still bound, per cent of control (MAP3K13 (human)) [%]	kinase still bound, per cent of control (MAP4K3 (human)) [%]	also measured
N#Cc1cc(-c2ccnc(Nc3ccc(-n4cnc(-c5cccnc5)n4)cc3)n2)cc(N2CCOCC2)c1	0.25	100	55	24	63	1.2	80	92	100	10	42	56	99	3.1	100	68	77	2.8	100	6.3	kinase still bound, per cent of control (MAPK15 (human)): 2%; kinase still bound, per cent of control (MELK (human)): 100%; kinase still bound, per cent of control (MKNK1 (human)): 100%; kinase still bound, per cent of control (MKNK2 (human)): 34%; kinase still bound, per cent of control (MUSK (human)): 92%; kinase still bound, per cent of control (PAK1 (human)): 65%; kinase still bound, per cent of control (PAK2 (human)): 72%; kinase still bound, per cent of control (PHKG1 (human)): 65%; kinase still bound, per cent of control (PLK1 (human)): 99%; kinase still bound, per cent of control (PLK2 (human)): 98%; kinase still bound, per cent of control (PRKCI (human)): 88%; kinase still bound, per cent of control (PTK2B (human)): 20%; kinase still bound, per cent of control [1]: 100%; kinase still bound, per cent of control (RIOK1 (human)): 3.8%; kinase still bound, per cent of control (RPS6KA2 KD2 (human)): 75%; kinase still bound, per cent of control (SGK110 (human)): 78%; kinase still bound, per cent of control (SRPK2 (human)): 34%; kinase still bound, per cent of control (STK32A (human)): 100%; kinase still bound, per cent of control (YSK4 (human)): 0.25%; kinase still bound, per cent of control (ZAP70 (human)): 70%
COc1cc2c(Nc3ccc(NC(=O)c4ccccc4)cc3)ncnc2cc1OCCCN1CCOCC1	66	26	17	100	72	6.5	100	97	100	96	100	84	65	70	2	100	6.3	100	27	70	kinase still bound, per cent of control (MAPK15 (human)): 100%; kinase still bound, per cent of control (MELK (human)): 42%; kinase still bound, per cent of control (MKNK1 (human)): 100%; kinase still bound, per cent of control (MKNK2 (human)): 4.2%; kinase still bound, per cent of control (MUSK (human)): 100%; kinase still bound, per cent of control (PAK1 (human)): 82%; kinase still bound, per cent of control (PAK2 (human)): 89%; kinase still bound, per cent of control (PHKG1 (human)): 53%; kinase still bound, per cent of control (PLK1 (human)): 100%; kinase still bound, per cent of control (PLK2 (human)): 100%; kinase still bound, per cent of control (PRKCI (human)): 94%; kinase still bound, per cent of control (PTK2B (human)): 98%; kinase still bound, per cent of control [1]: 9.6%; kinase still bound, per cent of control (RIOK1 (human)): 100%; kinase still bound, per cent of control (RPS6KA2 KD2 (human)): 100%; kinase still bound, per cent of control (SGK110 (human)): 100%; kinase still bound, per cent of control (SRPK2 (human)): 86%; kinase still bound, per cent of control (STK32A (human)): 96%; kinase still bound, per cent of control (YSK4 (human)): 23%; kinase still bound, per cent of control (ZAP70 (human)): 100%
